Where two headings read alike, the source gives them in different places.
Tests used:
Assay type in all cases: cell-based
[1] = system: cultured human mast cells (CHMC); experiment: CHMC low cell density ionomycin activation: tryptase assay
[2] = system: cultured human mast cells (CHMC); experiment: CHMC low cell density IgE activation: tryptase assay
Method in brief: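 Supernatant tryptase activity, assayed with substrate for 30 min at room temperature, served as the degranulation measure. Mast cells (1000-1500 per well depending on donor) sat 1 hr at 37° C in MT before a 30 min anti-IgE challenge at 37° C.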

[3] = system: Human Jurkat T-cells (clone N); experiment: Jurkat T-cell activation (anti-TCR, CD69 upregulation)
Method in brief: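 Readout is CD69 upregulation by flow cytometry (anti-CD69-APC, 20 min at 4 °C) after 20 h anti-TCR (C305, 500 ng/ml) stimulation at 37 °C.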

[4] = Homo sapiens, Mast cell, Low Density, read-out: CHMC Ionomycin Tryptase
[5] = Low Density, read-out: CHMC Ionomycin Tryptase
[6] = Low Density, read-out: CHMC anti-IgE Tryptase
[7] = Low Density CHMC, ionomycin activation, tryptase release, read-out: CHMC Ionomycin Tryptase IC50
[8] = Low Density CHMC, anti-IgE activation, tryptase release, read-out: CHMC anti-IgE Tryptase IC50
[9] = low cell density, read-out: CHMC Ionomycin Tryptase
[10] = low cell density, read-out: CHMC anti-IgE Tryptase

| SMILES | IC50 [1, 9] | IC50 [2, 10] | further results |
| --- | --- | --- | --- |
| Fc1cnc(Cl)nc1Nc1ccc2c(c1)CNCC2 [Compound R926912] | – | – | IC50 [1, 4]: > 10 µM; IC50 ([2]; Homo sapiens, Mast cell, read-out: CHMC anti-IgE Tryptase): > 10 µM; IC50 ([3]; Homo sapiens): > 10 µM |
| Nc1cccc(Nc2nc(Nc3cccc(NCCO)c3)ncc2F)c1 [Compound R950180] | – | – | IC50 [1, 5]: > 10 µM; IC50 [2, 6]: 0.278 µM; IC50 [3]: 2.87 µM |
| COC(=O)C(Nc1nc(Nc2ccc3c(c2)OCCO3)ncc1C#N)c1ccccc1 (stereo not shown) [Compound R925820] | – | – | IC50 [1, 7]: > 10 µM; IC50 [2, 8]: > 10 µM; IC50 [3]: > 10 µM |
| OCCOc1cccc(Nc2ncc(F)c(Nc3ccc4c(c3)OCCCO4)n2)c1 [Compound R935186] | – | – | IC50 [1, 5]: > 10 µM; IC50 [2, 6]: 0.211 µM; IC50 [3]: 1.09 µM |
| CN1C(=O)COc2ccc(Nc3ncc(F)c(Nc4cccc(O)c4)n3)cc21 [Compound R908703] | – | – | IC50 [1, 5]: > 10 µM; IC50 [2, 6]: 0.63 µM; IC50 [3]: 1.4 µM |
| NC(=O)c1ccc(Nc2ncc(F)c(Nc3ccc4c(c3)NC(=O)C(CCO)O4)n2)cc1 (racemic) [Compound R950454] | > 10 µM | 8.64 µM | – |
| CCN(CC)CCNC(=O)c1ccc(Nc2ncc(F)c(Nc3ccc4c(c3)NC(=O)C(CCO)O4)n2)cc1 (racemic) [Compound R950448] | 36 µM | 1.08 µM | – |
| COc1ccc(Nc2nc(Nc3cc(C)c(OC)c(Cl)c3)ncc2F)cc1Cl [Compound R926972] | > 10 µM | 5.29 µM | – |
| COc1cc(Nc2ncc(F)c(Nc3ccc4cc[nH]c4c3)n2)cc(OC)c1 [Compound R927089] | > 10 µM | 0.144 µM | – |
| CNC(=O)COc1cccc(Nc2ncc(F)c(Nc3ccc4c(c3)[C@@H](NC(=O)OCc3ccccc3)CCO4)n2)c1 [Compound R950417] | > 10 µM | 2.16 µM | – |
| Fc1cnc(Nc2ccc(OC(F)(F)F)c(Cl)c2)nc1Nc1ccc2c(c1)OCCO2 [Compound R927085] | > 10 µM | 7.43 µM | – |
| O=C(COc1cccc(Nc2ncc(F)c(NC3CC3)n2)c1)NC1CCC1 [Compound R945364] | > 10 µM | 1 µM | – |
| CNC(=O)Nc1cccc(Nc2nc(Nc3cc(C)cc(C)c3)ncc2F)n1 [Compound R927098] | > 10 µM | 1.53 µM | – |
| CC(C)(C)OC(=O)NCc1ccc(Nc2ncc(F)c(Nc3ccc(Cl)c(Cl)c3)n2)cc1 [Compound R950458] | 12 µM | 1.32 µM | – |
| COc1ccc(Nc2nc(Nc3ccc4oc(CN(C)C)cc4c3)ncc2F)cc1Cl [Compound R926978] | 18 µM | 0.995 µM | – |
| CNC(=O)n1ccc2ccc(Nc3nc(Nc4cc(C)cc(C)c4)ncc3F)cc21 [Compound R927099] | > 10 µM | > 10 µM | – |
| O=C1COc2ccc(Nc3nc(Nc4cc(Cl)cc(Cl)c4)ncc3F)nc2N1 [Compound R945454] | > 10 µM | 20.6 µM | – |
| CNC(=O)COc1cccc(Nc2ncc(F)c(Nc3ccc(OC(C)C)nc3)n2)c1 [Compound R926962] | > 10 µM | 0.205 µM | – |
| COc1cc(Nc2ncc(F)c(Nc3ccc4c(c3)NC(=O)C(C)(C)O4)n2)cc(C(F)(F)F)c1 [Compound R927065] | > 10 µM | 0.235 µM | – |
| CC(C)[C@@H]1CC[C@@H](C)C[C@H]1OC(=O)[C@H]1Cc2cc(Nc3ncc(F)c(Nc4ccc5c(c4)NC(=O)C(F)(F)O5)n3)ccc2O1 [Compound R927063] | > 10 µM | 0.849 µM | – |

| SMILES | IC50 [1, 9] | IC50 [2, 10] | further results |
| --- | --- | --- | --- |
| COc1ccc(Nc2nc(Nc3cccc(OCC(=O)NCCO)c3)ncc2F)cc1Cl [Compound R926963] | > 10 µM | 0.155 µM | – |
| O=C(NNc1nc(Nc2ccc3c(c2)OCCO3)ncc1F)c1ccc2c(c1)OCO2 [Compound R926406] | – | – | IC50 [1, 7]: > 10 µM; IC50 [2, 8]: > 10 µM |
| Cn1cc2ccc(Nc3ncc(F)c(Nc4ccc5c(c4)NC(=O)C(C)(C)O5)n3)cc2n1 [Compound R935445] | 11 µM | 0.184 µM | – |
| COc1cc(Nc2ncc(F)c(Nc3ccc4c(c3)NC(=O)C(CCO)O4)n2)cc(OC)c1 (racemic) [Compound R908950] | 47.5 µM | 0.074 µM | – |
| CNC(=O)CCn1cc2cc(Nc3ncc(F)c(Nc4ccc5c(c4)NC(=O)C(C)(C)O5)n3)ccc2n1 [Compound R935453] | > 10 µM | 0.15 µM | – |
| Cc1cc(Nc2ncc(F)c(Nc3ccc4c(c3)C(=O)NC(=O)C4(C)C)n2)cc(Cl)c1O [Compound R909320] | > 10 µM | 0.29 µM | – |
| CNC(=O)COc1cccc(Nc2ncc(F)c(Nc3cccc(NC(C)=O)n3)n2)c1 [Compound R927093] | > 10 µM | 0.303 µM | – |
| CNC(=O)COc1cccc(Nc2ncc(F)c(Nc3ccc4c(c3)[C@@H](N)CCO4)n2)c1 [Compound R950420] | > 10 µM | 0.114 µM | – |
| OCCCn1ncc2cc(Nc3ncc(F)c(Nc4ccc(Cl)cc4)n3)ccc21 [Compound R935383] | > 10 µM | 0.146 µM | – |
| COc1cc(Nc2ncc(F)c(Nc3ccc(OC(F)(F)F)c(Cl)c3)n2)cc(OC)c1 [Compound R927067] | 22.5 µM | 0.625 µM | – |
| NC1CCCCC1Nc1ncc(F)c(Nc2ccc3c(c2)NC(=O)C(CCO)O3)n1 (stereo not shown) [Compound R950443] | > 10 µM | > 10 µM | – |
| COc1cc(Nc2ncc(F)c(Nc3ccc4c(c3)C(=O)NC(=O)C4(C)C)n2)cc(OC)c1 [Compound R909323] | > 10 µM | > 10 µM | – |
| CNC(=O)n1ccc2ccc(Nc3nc(Nc4ccc(OC)c(Cl)c4)ncc3F)cc21 [Compound R927100] | > 10 µM | 6.2 µM | – |
| O=C1COc2ccc(Nc3nc(Nc4ccc5cc[nH]c5c4)ncc3F)nc2N1 [Compound R945443] | > 10 µM | 0.081 µM | – |
| CNC(=O)COc1cccc(Nc2ncc(F)c(Nc3ccc(OCc4ccccc4)c(Cl)c3)n2)c1 [Compound R926966] | > 10 µM | 0.539 µM | – |
| CC(C)NC(=O)C1Cc2cc(Nc3ncc(F)c(Nc4ccc(OC(F)(F)F)c(Cl)c4)n3)ccc2O1 (stereo not shown) [Compound R926961] | > 10 µM | 1.2 µM | – |
| O=C(N[C@H]1CCOc2ccc(Nc3nc(Cl)ncc3F)cc21)OCc1ccccc1 [Compound R950413] | > 10 µM | > 10 µM | – |
| COc1ccc(Nc2ncc(F)c(Nc3ccc4cc[nH]c4c3)n2)cc1Cl [Compound R927091] | > 10 µM | 0.27 µM | – |
| Fc1cnc(NC2CC2)nc1Nc1ccc(N2CCOCC2)cc1 [Compound R945357] | > 10 µM | > 10 µM | – |
| O=C(COc1cccc(Nc2ncc(F)c(NC3CC3)n2)c1)Nc1ccc(N2CCOCC2)cc1 [Compound R945365] | > 10 µM | 0.257 µM | – |

| SMILES | IC50 [1, 9] | IC50 [2, 10] | further results |
| --- | --- | --- | --- |
| CCN(CC)CCCNc1ncc(F)c(Nc2ccc3c(c2)NC(=O)[C@H](C)O3)n1 [Compound R950471] | > 10 µM | 50.5 µM | – |
| O=C(NCC(O)CO)C1Cc2cc(Nc3ncc(F)c(Nc4ccc(OC(F)(F)F)c(Cl)c4)n3)ccc2O1 (mixture of isomers) [Compound R926958] | > 10 µM | 0.353 µM | – |
| Cc1cccc(C)c1Nc1ncc(F)c(Nc2ccc3c(c2)OCCO3)n1 [Compound R927086] | > 10 µM | 0.286 µM | – |
| COc1ccc(Nc2nc(Nc3cccc(OCC(=O)NC4CC4)c3)ncc2F)cc1Cl [Compound R926967] | > 10 µM | 0.259 µM | – |
| CCN(CC)CCCNc1ncc(F)c(Nc2cc(OC)cc(OC)c2)n1 [Compound R950469] | > 10 µM | > 10 µM | – |
| CNC(=O)COc1cccc(Nc2ncc(F)c(Nc3ccc4c(c3)[C@H](NC(=O)OCc3ccccc3)CCO4)n2)c1 [Compound R950418] | 9.09 µM | 1.67 µM | – |
| Cc1cc(Nc2ncc(F)c(Nc3ccc4c(c3)OCCO4)n2)cc(C)c1Cl [Compound R927117] | > 10 µM | 0.614 µM | – |
| CC1=C(Nc2ncc(F)c(Nc3ccc4c(c3)OCCO4)n2)N(c2ccccc2)CO1 [Compound R926793] | – | – | IC50 [1, 4]: > 10 µM; IC50 ([2]; Homo sapiens, Mast cell, Low Density, read-out: CHMC anti-IgE Tryptase): 3.07 µM |
| COc1cc(Nc2nc(Nc3ccc(CNC(=O)OC(C)(C)C)cc3)ncc2F)cc(OC)c1 [Compound R950456] | 4.4 µM | 3.78 µM | – |
| O=C(COc1cccc(Nc2ncc(F)c(Nc3ccc(N4CCOCC4)cc3)n2)c1)NC1CC1 [Compound R945360] | > 10 µM | 1.37 µM | – |
| CCOC(=O)CCn1cc2cc(Nc3ncc(F)c(Nc4ccc5c(c4)NC(=O)C(C)(C)O5)n3)ccc2n1 [Compound R935448] | 4.3 µM | 0.111 µM | – |
| COc1cc(Nc2nc(Nc3ccc(CN)cc3)ncc2F)cc(OC)c1 [Compound R950457] | > 10 µM | 3.09 µM | – |
| COc1ccc(Nc2ncc(F)c(Nc3ccc4c(c3)NC(=O)C(CCO)O4)n2)cc1Cl (stereo not shown) [Compound R908951] | 5.48 µM | 0.085 µM | – |
| Fc1cnc(Nc2ccc(Cl)c(Cl)c2)nc1NC1CCC1 [Compound R945394] | 5.61 µM | 1.24 µM | – |
| COc1ccc(Nc2ncc(F)c(NC3CCC3)n2)cc1Cl [Compound R945395] | > 10 µM | 1.14 µM | – |
| CC(=O)Nc1cccc(Nc2nc(Nc3cc(C)cc(C)c3)ncc2F)n1 [Compound R927092] | > 10 µM | 0.377 µM | – |
| CNC(=O)CCn1cc2cc(Nc3ncc(F)c(Nc4ccc(Cl)c(Cl)c4)n3)ccc2n1 [Compound R935452] | > 10 µM | 0.213 µM | – |
| Fc1cnc(NC2CCC2)nc1Nc1ccc(N2CCOCC2)cc1 [Compound R945358] | > 10 µM | > 10 µM | – |
